Data taken from publication PMC4194234 (Psychopharmacology, 2014).
Read-outs that look alike come from different tables or passages of the source.

Assays:
5-HT2A receptor [1] = target: T1, 5-HT2A receptor (Homo sapiens, UniProt P28223); assay: cell-based; format: cell-based; settings: for Emax: CHO-K1, read-out: 5-HT2A β-arrestin Emax; for 5-HT2A β-arrestin recruitment activity (in words) / 5-HT2A β-arrestin Emax: CHOk1; for 5-HT2A β-arrestin recruitment activity (in words): screened at 10 µM; for 5-HT2A β-arrestin Emax: β-arrestin recruitment, mean ± SEM, three experiments in duplicate
Target sequence in this assay (P28223 whole entry): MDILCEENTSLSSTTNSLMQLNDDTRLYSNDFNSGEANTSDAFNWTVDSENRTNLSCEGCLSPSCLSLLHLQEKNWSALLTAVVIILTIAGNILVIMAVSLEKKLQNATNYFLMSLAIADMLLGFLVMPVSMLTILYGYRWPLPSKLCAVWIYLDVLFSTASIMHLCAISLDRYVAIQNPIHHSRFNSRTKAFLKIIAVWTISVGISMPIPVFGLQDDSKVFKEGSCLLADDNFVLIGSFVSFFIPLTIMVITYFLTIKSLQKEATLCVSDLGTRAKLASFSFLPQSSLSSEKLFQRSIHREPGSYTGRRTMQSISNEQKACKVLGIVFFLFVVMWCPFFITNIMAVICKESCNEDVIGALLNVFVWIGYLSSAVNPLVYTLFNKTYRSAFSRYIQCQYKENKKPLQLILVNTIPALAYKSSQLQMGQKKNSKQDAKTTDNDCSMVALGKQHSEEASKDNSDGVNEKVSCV
Target sequence in this assay (P32121 whole entry, further chain): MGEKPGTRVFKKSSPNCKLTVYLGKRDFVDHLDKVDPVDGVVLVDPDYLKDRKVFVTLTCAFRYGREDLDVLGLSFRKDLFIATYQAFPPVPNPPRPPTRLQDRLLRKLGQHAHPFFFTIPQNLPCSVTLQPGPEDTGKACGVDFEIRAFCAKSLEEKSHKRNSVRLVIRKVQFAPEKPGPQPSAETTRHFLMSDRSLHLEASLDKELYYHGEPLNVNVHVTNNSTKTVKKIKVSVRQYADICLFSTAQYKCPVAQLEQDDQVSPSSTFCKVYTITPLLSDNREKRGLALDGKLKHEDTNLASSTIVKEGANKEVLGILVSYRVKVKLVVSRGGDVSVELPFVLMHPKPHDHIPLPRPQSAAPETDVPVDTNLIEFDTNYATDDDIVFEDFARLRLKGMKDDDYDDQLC

5-HT2A receptor [2] = target: T1, 5-HT2A receptor; assay: cell-based; format: cell-based; settings: for 5-HT2A agonist activity in calcium mobilization assay (in words) / 5-HT2A Emax: HEK293; for Emax: HEK293, read-out: 5-HT2A Emax; for 5-HT2A Emax: calcium mobilization, mean ± SEM, three experiments in duplicate
Target sequence in this assay (P28223 whole entry): as the sequence (P28223 whole entry) above

5-HT1A receptor = target: T2, 5-HT1A receptor (Homo sapiens, UniProt P08908); assay: 5-HT1A calcium mobilization assay in Gα16-CHO cells; format: cell-based; settings: for 5-HT1A Emax: calcium mobilization, Gα16-CHO, mean ± SEM, three experiments in duplicate
T2 sequence (P08908 1-422): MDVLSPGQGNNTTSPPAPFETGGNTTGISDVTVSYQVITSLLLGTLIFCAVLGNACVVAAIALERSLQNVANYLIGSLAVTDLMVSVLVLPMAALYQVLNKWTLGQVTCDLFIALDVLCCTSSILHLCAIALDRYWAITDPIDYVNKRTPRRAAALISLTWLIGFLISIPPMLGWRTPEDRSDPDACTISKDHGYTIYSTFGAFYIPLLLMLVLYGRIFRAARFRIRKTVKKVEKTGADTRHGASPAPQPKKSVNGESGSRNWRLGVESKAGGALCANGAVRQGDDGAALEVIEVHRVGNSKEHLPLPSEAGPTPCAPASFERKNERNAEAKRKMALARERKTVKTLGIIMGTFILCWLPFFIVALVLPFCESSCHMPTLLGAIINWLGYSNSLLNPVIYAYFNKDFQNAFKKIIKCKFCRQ

[3] = target: T3, Norepinephrine Transporter (NET) (Rattus norvegicus, UniProt Q63380); assay: [3H]NE uptake inhibition, rat brain synaptosomes; format: biochemical
SERT [4] = target: T4, SERT (Rattus norvegicus, UniProt P31652); assay: [3H]5-HT uptake inhibition, rat brain synaptosomes; settings: for 5-HT uptake inhibitor activity at SERT (in words): rat brain synaptosomes
[5] = target: T5, Dopamine Transporter (DAT) (Rattus norvegicus, UniProt P23977); assay: [3H]DA uptake inhibition, rat striatum synaptosomes
humans = settings: tabulated from anecdotal reports in TiHKAL, ref Shulgin and Shulgin 1997; cited from earlier work
[6] = target: T3, Norepinephrine Transporter (NET); assay: NET-mediated release, rat brain synaptosomes; format: biochemical
[7] = target: T5, Dopamine Transporter (DAT); assay: DAT-mediated release, rat striatum synaptosomes
SERT [8] = target: T4, SERT; assay: SERT-mediated release, rat brain synaptosomes; settings: for 5-HT releasing activity at SERT (in words): rat brain synaptosomes

T4 sequence (P31652 whole entry): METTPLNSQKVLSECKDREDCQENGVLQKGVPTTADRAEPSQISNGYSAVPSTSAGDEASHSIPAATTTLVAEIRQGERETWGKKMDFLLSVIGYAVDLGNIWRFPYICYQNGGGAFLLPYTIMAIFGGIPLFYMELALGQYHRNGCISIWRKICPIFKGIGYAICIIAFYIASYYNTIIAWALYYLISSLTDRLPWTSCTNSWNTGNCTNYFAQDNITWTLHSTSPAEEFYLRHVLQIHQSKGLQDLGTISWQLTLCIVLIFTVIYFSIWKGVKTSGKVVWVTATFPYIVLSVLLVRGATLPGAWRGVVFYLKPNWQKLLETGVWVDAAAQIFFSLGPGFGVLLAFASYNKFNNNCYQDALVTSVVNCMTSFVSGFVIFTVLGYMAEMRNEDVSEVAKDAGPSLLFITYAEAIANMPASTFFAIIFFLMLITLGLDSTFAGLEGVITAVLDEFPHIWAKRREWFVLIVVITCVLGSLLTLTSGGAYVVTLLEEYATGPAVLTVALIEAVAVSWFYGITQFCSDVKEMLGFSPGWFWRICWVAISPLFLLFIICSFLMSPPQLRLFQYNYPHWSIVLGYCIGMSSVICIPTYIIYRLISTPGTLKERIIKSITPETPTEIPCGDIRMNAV
T5 sequence (P23977 whole entry): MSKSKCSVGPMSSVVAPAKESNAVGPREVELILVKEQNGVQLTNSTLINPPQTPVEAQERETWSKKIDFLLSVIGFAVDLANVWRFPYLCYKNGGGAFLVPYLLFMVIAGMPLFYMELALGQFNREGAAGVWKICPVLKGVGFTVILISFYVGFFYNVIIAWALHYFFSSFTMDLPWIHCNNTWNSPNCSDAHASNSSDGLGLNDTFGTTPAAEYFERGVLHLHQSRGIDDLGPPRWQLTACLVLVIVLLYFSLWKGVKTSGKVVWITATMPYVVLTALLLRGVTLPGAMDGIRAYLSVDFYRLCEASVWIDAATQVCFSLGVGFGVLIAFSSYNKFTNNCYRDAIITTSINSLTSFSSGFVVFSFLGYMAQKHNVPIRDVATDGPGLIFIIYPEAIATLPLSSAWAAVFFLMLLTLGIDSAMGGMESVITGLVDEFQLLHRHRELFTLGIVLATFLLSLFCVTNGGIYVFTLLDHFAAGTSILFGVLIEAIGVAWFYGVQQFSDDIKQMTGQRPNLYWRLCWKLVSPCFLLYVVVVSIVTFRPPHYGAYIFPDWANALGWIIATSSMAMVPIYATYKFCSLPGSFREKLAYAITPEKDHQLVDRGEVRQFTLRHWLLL
T3 sequence (Q63380 1-617): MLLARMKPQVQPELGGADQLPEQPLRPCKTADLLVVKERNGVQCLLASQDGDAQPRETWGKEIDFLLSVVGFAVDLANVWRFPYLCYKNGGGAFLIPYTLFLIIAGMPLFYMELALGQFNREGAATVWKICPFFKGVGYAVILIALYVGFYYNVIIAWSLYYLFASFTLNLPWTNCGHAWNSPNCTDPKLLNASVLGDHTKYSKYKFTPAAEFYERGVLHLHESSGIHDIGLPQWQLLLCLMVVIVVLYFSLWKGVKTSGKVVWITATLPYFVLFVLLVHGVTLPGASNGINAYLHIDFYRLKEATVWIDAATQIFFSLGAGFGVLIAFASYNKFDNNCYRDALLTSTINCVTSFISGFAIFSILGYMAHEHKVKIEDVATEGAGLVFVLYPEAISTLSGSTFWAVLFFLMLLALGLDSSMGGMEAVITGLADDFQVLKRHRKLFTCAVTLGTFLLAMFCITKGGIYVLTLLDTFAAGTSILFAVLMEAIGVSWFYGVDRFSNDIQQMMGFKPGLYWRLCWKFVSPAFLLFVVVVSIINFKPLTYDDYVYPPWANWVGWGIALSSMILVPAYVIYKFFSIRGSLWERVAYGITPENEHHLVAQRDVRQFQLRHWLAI

Compound: COc1ccc2[nH]cc(CCN(C(C)C)C(C)C)c2c1 [Compound 1, N,N-diisopropyl-5-methoxytryptamine]
- Emax (5-HT2A receptor [1]): 124 ± 12%
- 5-HT2A agonist activity in calcium mobilization assay (in words) (5-HT2A receptor [2]): low nanomolar potency
- Emax (5-HT2A receptor [2]): 109 ± 5%
- EC50 (5-HT1A receptor): > 10 µM
- IC50 [3]: > 10 µM
- IC50 (SERT [4]): 0.646 ± 0.048 µM
- IC50 [5]: > 10 µM
- Psychoactive Effects (humans): Erotic, senses distorted, short-lived, could not make intuitive leaps

Compound: COc1ccc2[nH]cc(CCN(C)C(C)C)c2c1 [Compound 2, N-isopropyl-N-methyl-5-methoxytryptamine]
- EC50 (5-HT2A receptor [1]): 0.566 ± 0.11 µM
- Emax (5-HT2A receptor [1]): 82 ± 13%
- 5-HT2A agonist activity in calcium mobilization assay (in words) (5-HT2A receptor [2]): low nanomolar potency
- Emax (5-HT2A receptor [2]): 101 ± 3%
- EC50 (5-HT1A receptor): > 10 µM
- IC50 [3]: > 10 µM
- IC50 (SERT [4]): > 10 µM
- 5-HT uptake inhibitor activity at SERT (in words) (SERT [4]): totally inactive
- IC50 [5]: > 10 µM
- Psychoactive Effects (humans): Fast onset, stimulates conceptual thought, depersonalization

Compound: CN(C)CCc1c[nH]c2ccccc12 [Compound 6, N,N-dimethyltryptamine]
- EC50 (5-HT2A receptor [1]): > 10 µM
- 5-HT2A β-arrestin recruitment activity (in words) (5-HT2A receptor [1]): inactive
- Emax (5-HT2A receptor [2]): 83 ± 0.4%
- EC50 [6]: 4.17 ± 0.317 µM
- EC50 [7]: > 10 µM
- EC50 (SERT [8]): 0.114 ± 0.015 µM
- Psychoactive Effects (humans): Heavy intoxicant and hallucinogen, visuals, intense colors

Compound: COc1ccc2[nH]cc(CCN(C)C)c2c1 [Compound 7, N,N-dimethyl-5-methoxytryptamine]
- Emax (5-HT2A receptor [1]): 56 ± 6%
- 5-HT2A agonist activity in calcium mobilization assay (in words) (5-HT2A receptor [2]): low nanomolar potency
- Emax (5-HT2A receptor [2]): 101 ± 4%
- 5-HT1A Emax (5-HT1A receptor): 68 ± 3%
- IC50 [3]: > 10 µM
- IC50 (SERT [4]): 2.18 ± 0.222 µM
- IC50 [5]: > 10 µM
- Psychoactive Effects (humans): Time distortions, stoned feeling, hallucinogenic at high doses

Compound: NCCc1c[nH]c2ccccc12 [Compound 12, Tryptamine]
- Emax (5-HT2A receptor [1]): 108 ± 16%
- 5-HT releasing activity at SERT (in words) (SERT [8]): releasers
- Psychoactive Effects (humans): Psychoactive, short acting due to metabolism, increased blood pressure, similar to LSD

Compound: CC(N)Cc1c[nH]c2ccccc12 (stereo not drawn) [Compound 13]
- Psychoactive Effects (humans): Psychedelic but varied, fast/slow onset, good/bad experiences, long lasting, no visuals, speed-like, tachycardia, jaw clenching

Compound: CNCCc1c[nH]c2ccccc12 [Compound 14, N-methyltryptamine]
- EC50 (5-HT2A receptor [1]): > 10 µM
- 5-HT2A β-arrestin recruitment activity (in words) (5-HT2A receptor [1]): inactive
- EC50 (5-HT1A receptor): > 10 µM

Compound: CN(C)CCc1c[nH]c2ccc(O)cc12 [Compound 16, N,N-dimethyl-5-hydroxytryptamine]
- EC50 [6]: > 10 µM
- EC50 (5-HT1A receptor): 0.366 ± 0.067 µM
- EC50 [7]: > 10 µM
- Psychoactive Effects (humans): Some visuals (lines and dots), tightness in chest, nausea, breathing issues, mind feels crowded

Compound: CNCCc1c[nH]c2ccc(OC)cc12 [Compound 17]
- 5-HT2A β-arrestin Emax (5-HT2A receptor [1]): 66 ± 9%
- 5-HT2A Emax (5-HT2A receptor [2]): 84 ± 20%
- 5-HT1A Emax (5-HT1A receptor): 72 ± 4%
- 5-HT releasing activity at SERT (in words) (SERT [8]): releasers

Compound: CCNCCc1c[nH]c2ccc(OC)cc12 [Compound 18, 5-methoxy-N-ethyltryptamine]
- EC50 (5-HT2A receptor [1]): 0.568 ± 0.174 µM
- Emax (5-HT2A receptor [1]): 103 ± 12%
- 5-HT2A β-arrestin recruitment activity (in words) (5-HT2A receptor [1]): fully efficacious
- Emax (5-HT2A receptor [2]): 112 ± 3%
- EC50 [6]: > 10 µM
- EC50 (5-HT1A receptor): 0.262 ± 0.027 µM
- EC50 [7]: > 10 µM
- EC50 (SERT [8]): 0.284 ± 0.0416 µM
- 5-HT releasing activity at SERT (in words) (SERT [8]): releasers

Compound: CCN(CC)CCc1c[nH]c2ccccc12 [Compound 19]
- 5-HT2A Emax (5-HT2A receptor [2]): 90 ± 6%
- Fold more potent at SERT uptake inhibition than 5-MeO-DET (SERT [4]; DET versus 5-MeO-DET (26)): 10 fold
- Psychoactive Effects (humans): Psychoactive, visuals, vertigo

Compound: CC(C)NCCc1c[nH]c2ccccc12 [Compound 20]
- 5-HT2A Emax (5-HT2A receptor [2]): 96 ± 3%
- Psychoactive Effects (humans): Light-headed intoxicant, pleasant buzz

Compound: CCCN(CCC)CCc1c[nH]c2ccccc12 [Compound 21]
- 5-HT2A β-arrestin Emax (5-HT2A receptor [1]): 63 ± 8%
- 5-HT2A Emax (5-HT2A receptor [2]): 97 ± 3%
- Psychoactive Effects (humans): Intensely visual, long lasting, things appear fast, religious experiences

Compound: CC(C)N(CCc1c[nH]c2ccccc12)C(C)C [Compound 22]
- 5-HT2A Emax (5-HT2A receptor [2]): 110 ± 2%
- Psychoactive Effects (humans): Auditory, not visual, heard voices, sounds had “golden spikes”, religious overtones

Compound: CC(C)N(C)CCc1c[nH]c2ccccc12 [Compound 23]
- 5-HT2A Emax (5-HT2A receptor [2]): 74 ± 5%
- 5-HT uptake inhibitor activity at SERT (in words) (SERT [4]): totally inactive
- Psychoactive Effects (humans): Mild hallucinations, stimulant, fast onset, psychedelic

Compound: CN(C)CCc1c[nH]c2cccc(O)c12 [Compound 24, Psilocin]
- Emax (5-HT2A receptor [2]): 76 ± 7%
- IC50 [3]: > 10 µM
- IC50 (SERT [4]): 0.662 ± 0.041 µM
- IC50 [5]: > 10 µM
- Psychoactive Effects (humans): Very visual, lots of colors, better at night

Compound: COc1ccc2[nH]cc(CCN)c2c1 [Compound 25]
- 5-HT1A Emax (5-HT1A receptor): 66 ± 4%
- Psychoactive Effects (humans): Not particularly active, possibly due to metabolism similar to 12

Compound: CCN(CC)CCc1c[nH]c2ccc(OC)cc12 [Compound 26]
- 5-HT2A β-arrestin Emax (5-HT2A receptor [1]): 64 ± 8%
- 5-HT2A agonist activity in calcium mobilization assay (in words) (5-HT2A receptor [2]): low nanomolar potency
- 5-HT2A Emax (5-HT2A receptor [2]): 101 ± 0.8%
- 5-HT1A Emax (5-HT1A receptor): 67 ± 2%
- Psychoactive Effects (humans): Auditory changes, negative experiences, anxiety

Compound: COc1ccc2[nH]cc(CCNC(C)C)c2c1 [Compound 27]
- 5-HT2A β-arrestin Emax (5-HT2A receptor [1]): 99 ± 6%
- 5-HT2A agonist activity in calcium mobilization assay (in words) (5-HT2A receptor [2]): low nanomolar potency
- 5-HT2A Emax (5-HT2A receptor [2]): 101 ± 2%

Compound: CCCN(CCC)CCc1c[nH]c2ccc(OC)cc12 [Compound 28]
- 5-HT2A β-arrestin Emax (5-HT2A receptor [1]): 68 ± 2%
- 5-HT2A agonist activity in calcium mobilization assay (in words) (5-HT2A receptor [2]): low nanomolar potency
- 5-HT2A Emax (5-HT2A receptor [2]): 101 ± 3%
- 5-HT1A Emax (5-HT1A receptor): 43 ± 5%
- Psychoactive Effects (humans): Comfortable at low doses, oscillating good and bad sounds, negative side dominated as buzz continues
